Test: refractive index (other wavelength) (dimensionless)
Conditions: 100 kPa, Liquid, Wavelength=632.8 nm, Angle minimization by sell rotation

CCCCCCCCCCC [undecane]
Conditions | refractive index
293.4 K | 1.4162
294.3 K | 1.4157
295.27 K | 1.4152
296.26 K | 1.4148
297.25 K | 1.4144
298.27 K | 1.4139
299.34 K | 1.4134
300.31 K | 1.413
301.27 K | 1.4126

CCCCCCCCCCCCC [tridecane]
Conditions | refractive index
294.14 K | 1.4241
295.15 K | 1.4236
296.18 K | 1.4232
297.23 K | 1.4227
299.35 K | 1.4218
300.44 K | 1.4213
302.44 K | 1.4204
303.67 K | 1.4199
304.45 K | 1.4196

COC(=O)OC [dimethyl carbonate]
Conditions | refractive index
293.16 K | 1.3678
294.29 K | 1.3673
295.28 K | 1.3669
296.28 K | 1.3663
297.28 K | 1.3659
298.3 K | 1.3654
300.3 K | 1.3644
302.3 K | 1.3635
303.4 K | 1.363
